From patent US20120022147A1, “2, 6 XYLIDINE DERIVATIVES FOR THE TREATMENT OF PAIN” (KRISANI BIOSCIENCES (P) LTD, priority 2011, published 2012)
Values joined by “and” are separate entries in the source; they are usually repeats but may differ in a detail not shown here. Identical values can stand only once. Marks after values point to notes of the source that are not given here.

Test system: spinal nerve ligation model for neuropathic pain in rats
Experiment: Von Frey test for mechanical allodynia in the spinal nerve ligation (Chung) model of neuropathic pain
Format: in vivo, rat
Conditions: for mean Von Frey force required for withdrawal of left operated leg, Baseline: baseline before surgery and treatment
Text: Experimental animals were male SD rats with a starting weight of 230-250 grams. Total number of animals were n=90 for surgery and n=60 after selection. The animals were caged in groups of 3 in a temperature and humidity controlled area. They were maintained on a 12 hr light/dark cycle and had ad libitum access to food and water. Rodent models of neuropathic pain are used to investigate the underlying mechanisms of pain associated with damage to peripheral nerves and to evaluate the efficacy of novel. Tactile sensitivity was measured 7-21 days post-surgery using von Frey monofilaments before and following treatment with gabapentin and other compounds (La Buda et al. 2005).
Neuropathic pain inducement was done by following principles of Chung induced model. The SD rats were anesthetized using ketamine/xylazine sodium. The rats were shaved and placed in prone position for surgery. The L5-L6 spinal nerves were surgically litigated. The rats were returned to their cages for recuperation and recovery under comfortable warm conditions using heat lamps.
After seven days of surgery a pre selection was performed. Animals that indicate signs of post operative pain were to be selected to proceed. Pain is detected by observing when one or more of the criteria are met as follows. Licking of the operated paw, accompanied by gentle biting or pulling on the nails with the mouth; placing the leg in the air; bearing weight on the side contra-lateral to the nerve injury; deformities of the hind paw and abnormal posture and walking; weakness of the left hind paw. […] However, the animal must be able to move its leg to ensure that the L4 spinal nerve is intact. If the animal cannot move its leg, it was excluded from the study.
Second level of selection of the rats was done on day 14 after the surgery. Von Frey test was performed on the preselected rats after day 7 on day 14. Using Von Frey methodology, animals with a pain threshold of ≦26 g for the operated leg will be included in the study. After this selection step, the animals were randomly placed into their experimental groups.
Blank, positive control and test compound: Blank was just the medium used for dissolving other compounds. The positive control was Gabapentin and the test compound was the final compound of formula 1 discussed in the instant disclosure. Three types of experimental groups were formed. Different types of chemicals such as Vehicle and Control were used to determine the efficacy of the chemicals as well comparison of the instant disclosed compound of formula 1, with a positive control was performed. The final compound of the instant disclosure was administered at 100 mg/kg and 150 mg/kg body weight as two different groups. The Gabapentin was administered at 150 mg/kg body weight.
On day 14 blank compound and final compound will be administered once daily starting on study day 14 through study day 21. Gabapentin, the positive control, will be administered 2 hours prior to pain testing on study days 14 and 21. The Von Frey test was be performed prior to final compound administration (pre-final compound injection) and after final compound administration at 0.5 hours, 2 hours and 4.5 hours post-final compound injection on study days 14 and 21. Additionally, if the Von Frey response for the operated leg of one of the six treatment groups is significant at 4.5 hours, all the groups will be tested again at 6.5 hours. In all instances, unless decided otherwise in the course of the study, all dosing solutions are applied as once a day intra peritoneal (IP) administration on each of the repeated dosing sessions. After the termination of the study the animals were euthanized.
Pain Response Evaluation: Pain response was evaluated using Von Frey test for mechanical allodynia. The Von Frey test for mechanical allodynia is based on applying short pulses of pressure that are not painful to a naïve animal. […]

[1] = 150 mg/kg IP, study days 14 and 21
[2] = Table 9 (day 14), male SD rats, mean
[3] = Table 10 (day 21), male SD rats
[4] = study day 14, before first dose, male SD rats
[5] = study day 14, 150 mg/kg IP, male SD rats
[6] = study day 14, 150 mg/kg IP, male SD rats, 150 mg/kg
[7] = study day 21, before that day's dose, KRB-5b once daily from day 14, gabapentin on days 14 and 21, 150 mg/kg IP
[8] = study day 21, 150 mg/kg IP, male SD rats
[9] = study day 21, 150 mg/kg IP, male SD rats, 150 mg/kg
[10] = study day 14, 150 mg/kg IP, male SD rats, listed as gabapentin, 150 mg/kg

## CCN(CCOC(=O)CCCCC1CCSS1)CC(=O)Nc1c(C)cccc1C (stereo not shown) [KRB-5b]
[1]
  analgesic activity compared to gabapentin (in words): prolonged analgesic activity compared to gabapentin
  analgesic effect on mechanical allodynia compared to Vehicle (in words): effective as a pain analgesic item
150 mg/kg IP, study days 14 and 21, listed as formula 1
  analgesic effect on mechanical allodynia compared to Vehicle (in words): effective in treating the spinal nerve ligation model for neuropathic pain in rats
[2]
  mean Von Frey force required for withdrawal of left operated leg, Baseline: 60.00 g
[3]
  mean Von Frey force required for withdrawal of left operated leg, Baseline: 60 g
[4]
  mean Von Frey force required for withdrawal of left operated leg, Pre-treatment: 11.00 g
[5]
  mean Von Frey force required for withdrawal of left operated leg, 30 min Post treatment: 19.60 g
  mean Von Frey force required for withdrawal of left operated leg, 6.5 hr Post treatment: 16.40 g
[6]
  mean Von Frey force required for withdrawal of left operated leg, 2 hr Post treatment: 39.00±7.19 g and 39.00* g
  mean Von Frey force required for withdrawal of left operated leg, 4.5 hr Post treatment: 44.20±6.55 g and 44.20*# g
[7]
  mean Von Frey force required for withdrawal of left operated leg, Pre-treatment: 15.40 g
[8]
  mean Von Frey force required for withdrawal of left operated leg, 30 min Post treatment: 17.50 g
  mean Von Frey force required for withdrawal of left operated leg, 2 hr Post treatment: 21.30# g
  mean Von Frey force required for withdrawal of left operated leg, 6.5 hr Post treatment: 10.80 g
[9]
  mean Von Frey force required for withdrawal of left operated leg, 4.5 hr Post treatment: 26.20±5.81 g and 26.20*# g

## NCC1(CC(=O)O)CCCCC1 [Gabapentin, reference compound]
[1]
  analgesic effect on mechanical allodynia compared to Vehicle (in words): active only at 2 hours post dosing
[2]
  mean Von Frey force required for withdrawal of left operated leg, Baseline: 60.00 g
[3]
  mean Von Frey force required for withdrawal of left operated leg, Baseline: 60 g
[4]
  mean Von Frey force required for withdrawal of left operated leg, Pre-treatment: 9.69 g
[5]
  mean Von Frey force required for withdrawal of left operated leg, 30 min Post treatment: 9.85 g
  mean Von Frey force required for withdrawal of left operated leg, 6.5 hr Post treatment: 10.69 g
[6]
  mean Von Frey force required for withdrawal of left operated leg, 2 hr Post treatment: 35.69* g
  mean Von Frey force required for withdrawal of left operated leg, 4.5 hr Post treatment: 10.69 g
[10]
  mean Von Frey force required for withdrawal of left operated leg, 2 hr Post treatment: 35.69 ± 5.69 g
  mean Von Frey force required for withdrawal of left operated leg, 4.5 hr Post treatment: 10.69 ± 1.42 g
[7]
  mean Von Frey force required for withdrawal of left operated leg, Pre-treatment: 7.92 g
[8]
  mean Von Frey force required for withdrawal of left operated leg, 30 min Post treatment: 9.85 g
  mean Von Frey force required for withdrawal of left operated leg, 6.5 hr Post treatment: 9.62 g
[9]
  mean Von Frey force required for withdrawal of left operated leg, 2 hr Post treatment: 48.69±4.96 g and 48.69* g
  mean Von Frey force required for withdrawal of left operated leg, 4.5 hr Post treatment: 10.62 g
Study day 21, 150 mg/kg IP, male SD rats, listed as gabapentin, 150 mg/kg
  mean Von Frey force required for withdrawal of left operated leg, 4.5 hr Post treatment: 10.62 ± 0.90 g
